Three compounds from PubChem BioAssay AID1259407 (Chemical Carcinogenesis Research Information System (CCRIS), 2018) can be followed below.

The test system of this series is CCRIS mutagenicity, Ames/micronucleus/aberration tests. Description: CCRIS mutagenicity studies.
Setting [1] is: Test System: AMES SALMONELLA TYPHIMURIUM, Strain/Indicator: TA98, Metabolic Activation: NONE, Method: STANDARD PLATE.
The mark [2] stands for this setting: Test System: AMES SALMONELLA TYPHIMURIUM, Strain/Indicator: TA98, Metabolic Activation: RAT, LIVER, S-9, AROCLOR 1254, Method: STANDARD PLATE.
Setting [3] is: Test System: AMES SALMONELLA TYPHIMURIUM, Strain/Indicator: TA100, Metabolic Activation: NONE, Method: STANDARD PLATE.
Where [4] appears, read: Test System: AMES SALMONELLA TYPHIMURIUM, Strain/Indicator: TA100, Metabolic Activation: RAT, LIVER, S-9, AROCLOR 1254, Method: STANDARD PLATE.
Setting [5] is: Test System: AMES SALMONELLA TYPHIMURIUM, Strain/Indicator: TA1535, Metabolic Activation: NONE, Method: STANDARD PLATE.
The mark [6] stands for this setting: Test System: AMES SALMONELLA TYPHIMURIUM, Strain/Indicator: TA1535, Metabolic Activation: RAT, LIVER, S-9, AROCLOR 1254, Method: STANDARD PLATE.
Where [7] appears, read: Test System: AMES SALMONELLA TYPHIMURIUM, Strain/Indicator: TA1537, Metabolic Activation: NONE, Method: STANDARD PLATE.
[8] abbreviates: Test System: AMES SALMONELLA TYPHIMURIUM, Strain/Indicator: TA1537, Metabolic Activation: RAT, LIVER, S-9, AROCLOR 1254, Method: STANDARD PLATE.
The mark [9] stands for this setting: Test System: AMES SALMONELLA TYPHIMURIUM, Strain/Indicator: TA1538, Metabolic Activation: NONE, Method: STANDARD PLATE.
[10] abbreviates: Test System: AMES SALMONELLA TYPHIMURIUM, Strain/Indicator: TA1538, Metabolic Activation: RAT, LIVER, S-9, AROCLOR 1254, Method: STANDARD PLATE.

SMILES strings stand for the structures. Active and inactive are the calls of the source. No rule for the calls is given here.

On to `O=C(CCCN1CCC(O)(c2ccc(Cl)cc2)CC1)c1ccc(F)cc1`, for which the mutagenic call is “inactive; negative” (End Point: IN VITRO CHROMOSOMAL ABERRATIONS, Test System: HUMAN LYMPHOCYTES, Metabolic Activation: NONE); “inactive; negative” (End Point: IN VIVO CHROMOSOMAL ABERRATIONS, Test System: LYMPHOCYTES, Species: HUMAN, Strain/Sex: MALE, Route: ORAL); “inactive; negative” (Test System: AMES SALMONELLA TYPHIMURIUM, Strain/Indicator: TA98, Metabolic Activation: MOUSE, LIVER, S-9, AROCLOR 1254, Method: STANDARD PLATE); “inactive; negative” (Test System: AMES SALMONELLA TYPHIMURIUM, Strain/Indicator: TA98, Metabolic Activation: MOUSE, LIVER, S-9, Method: STANDARD PLATE); “inactive; negative” (Test System: AMES SALMONELLA TYPHIMURIUM, Strain/Indicator: TA98, Metabolic Activation: NONE, Method: PREINCUBATION); “inactive; negative” under setting [1]. In addition, the mutagenic call was “inactive; negative” (Test System: AMES SALMONELLA TYPHIMURIUM, Strain/Indicator: TA98, Metabolic Activation: RAT, LIVER, S-9, AROCLOR 1254, Method: PREINCUBATION); “inactive; negative” under setting [2]; “inactive; negative” (Test System: AMES SALMONELLA TYPHIMURIUM, Strain/Indicator: TA100, Metabolic Activation: MOUSE, LIVER, S-9, AROCLOR 1254, Method: STANDARD PLATE); “inactive; negative” (Test System: AMES SALMONELLA TYPHIMURIUM, Strain/Indicator: TA100, Metabolic Activation: MOUSE, LIVER, S-9, Method: STANDARD PLATE); “inactive; negative” (Test System: AMES SALMONELLA TYPHIMURIUM, Strain/Indicator: TA100, Metabolic Activation: NONE, Method: PREINCUBATION); “inactive; negative” under setting [3]. Further, the mutagenic call by setting is: (Test System: AMES SALMONELLA TYPHIMURIUM, Strain/Indicator: TA100, Metabolic Activation: RAT, LIVER, S-9, AROCLOR 1254, Method: PREINCUBATION) “inactive; negative”; under setting [4], “inactive; negative”; (Test System: AMES SALMONELLA TYPHIMURIUM, Strain/Indicator: TA1530, Metabolic Activation: MOUSE, LIVER, S-9, AROCLOR 1254, Method: STANDARD PLATE) “inactive; negative”; (Test System: AMES SALMONELLA TYPHIMURIUM, Strain/Indicator: TA1530, Metabolic Activation: MOUSE, LIVER, S-9, Method: STANDARD PLATE) “inactive; negative”; (Test System: AMES SALMONELLA TYPHIMURIUM, Strain/Indicator: TA1530, Metabolic Activation: NONE, Method: STANDARD PLATE) “inactive; negative”; (Test System: AMES SALMONELLA TYPHIMURIUM, Strain/Indicator: TA1530, Metabolic Activation: RAT, LIVER, S-9, AROCLOR 1254, Method: STANDARD PLATE) “inactive; negative”. Also, the mutagenic call runs as follows: (Test System: AMES SALMONELLA TYPHIMURIUM, Strain/Indicator: TA1535, Metabolic Activation: MOUSE, LIVER, S-9, AROCLOR 1254, Method: STANDARD PLATE) “inactive; negative”; (Test System: AMES SALMONELLA TYPHIMURIUM, Strain/Indicator: TA1535, Metabolic Activation: MOUSE, LIVER, S-9, Method: STANDARD PLATE) “inactive; negative”; under setting [5], “inactive; negative”; under setting [6], “inactive; negative”; under setting [7], “inactive; negative”; under setting [8], “inactive; negative”. Moreover, the mutagenic call is, setting by setting: (Test System: AMES SALMONELLA TYPHIMURIUM, Strain/Indicator: TA1538, Metabolic Activation: MOUSE, LIVER, S-9, AROCLOR 1254, Method: STANDARD PLATE) “inactive; negative”; (Test System: AMES SALMONELLA TYPHIMURIUM, Strain/Indicator: TA1538, Metabolic Activation: MOUSE, LIVER, S-9, Method: STANDARD PLATE) “inactive; negative”; under setting [9], “inactive; negative”; under setting [10], “inactive; negative”.
Consider `NC1c2ccccc2-c2ccccc21`, for which the mutagenic call (Test System: AMES SALMONELLA TYPHIMURIUM, Strain/Indicator: TA98, Metabolic Activation: RAT, LIVER, S-9, AROCLOR 1254 (2 OR 4%), Method: STANDARD PLATE) was “inactive; negative”; the mutagenic call (Test System: AMES SALMONELLA TYPHIMURIUM, Strain/Indicator: TA100, Metabolic Activation: RAT, LIVER, S-9, AROCLOR 1254 (2%), Method: STANDARD PLATE) is “inactive; negative”; the mutagenic call (Test System: AMES SALMONELLA TYPHIMURIUM, Strain/Indicator: TA1535, Metabolic Activation: RAT, LIVER, S-9, AROCLOR 1254 (2%), Method: STANDARD PLATE) is “inactive; negative”; the mutagenic call (Test System: AMES SALMONELLA TYPHIMURIUM, Strain/Indicator: TA1537, Metabolic Activation: RAT, LIVER, S-9, AROCLOR 1254 (2%), Method: STANDARD PLATE) is “inactive; negative”.
Regarding `CCCCC=O`, the mutagenic call by setting is: (Test System: AMES SALMONELLA TYPHIMURIUM, Strain/Indicator: TA98, Metabolic Activation: HAMSTER, LIVER, S-9, AROCLOR 1254, Method: STANDARD PLATE) “inactive; negative”; under setting [1], “inactive; negative”; under setting [2], “inactive; negative”; (Test System: AMES SALMONELLA TYPHIMURIUM, Strain/Indicator: TA100, Metabolic Activation: HAMSTER, LIVER, S-9, AROCLOR 1254, Method: STANDARD PLATE) “inactive; negative”; under setting [3], “inactive; negative”; under setting [4], “inactive; negative”. Moreover, the mutagenic call by setting is: (Test System: AMES SALMONELLA TYPHIMURIUM, Strain/Indicator: TA1535, Metabolic Activation: HAMSTER, LIVER, S-9, AROCLOR 1254, Method: STANDARD PLATE) “inactive; negative”; under setting [5], “inactive; negative”; under setting [6], “inactive; negative”; (Test System: AMES SALMONELLA TYPHIMURIUM, Strain/Indicator: TA1537, Metabolic Activation: HAMSTER, LIVER, S-9, AROCLOR 1254, Method: STANDARD PLATE) “inactive; negative”; under setting [7], “inactive; negative”; under setting [8], “inactive; negative”. Besides, the mutagenic call runs as follows: (Test System: AMES SALMONELLA TYPHIMURIUM, Strain/Indicator: TA1538, Metabolic Activation: HAMSTER, LIVER, S-9, AROCLOR 1254, Method: STANDARD PLATE) “inactive; negative”; under setting [9], “inactive; negative”; under setting [10], “inactive; negative”; (Test System: CHINESE HAMSTER V-79, Strain/Indicator: V-79/6-THIOGUANINE (HGPRT), Metabolic Activation: NONE, Method: REPLATING) “active; positive”; (Test System: CHINESE HAMSTER V-79, Strain/Indicator: V-79/OUABAIN (NA/K), Metabolic Activation: NONE, Method: REPLATING) “active; positive”; (Test System: MOUSE LYMPHOMA, Strain/Indicator: L5178Y (TK+/TK-), Metabolic Activation: NONE, Method: SUSPENSION/PLATE) “active; positive. reevaluation of results: positive”. Moreover, the mutagenic call by setting is: (Test System: MOUSE LYMPHOMA, Strain/Indicator: L5178Y (TK+/TK-), Metabolic Activation: RAT, LIVER, S-9, AROCLOR 1254, Method: SUSPENSION/PLATE) “inactive; negative. reevaluation of results: negative”; (Test System: UDS HUMAN HEPATOCYTES, Strain/Indicator: THY INCORP, Metabolic Activation: NONE, Method: AUTORADIOGRAPHY) “inactive; negative”; (Test System: UDS RAT HEPATOCYTES, Strain/Indicator: THY INCORP, Metabolic Activation: NONE, Method: AUTORADIOGRAPHY) “active; positive”.
